# Where a name gives a salt, the structure may show the parent alone.
# System: not given
# Assay: not given
# Settings: not given
row,Compound,melting point
1,COc1cc(NC(=O)N[C@@H]2C[C@H](O)C[C@H]2N2CCC(Cc3ccc(Cl)cc3)CC2)cc(OC)c1OC (racemic) (as salt: hydrochloride),137 to 143 °C
2,COc1cc(NC(=O)N[C@@H]2CN(CC(N)=O)C[C@H]2N2CCC(Cc3ccc(Cl)cc3)CC2)cc(OC)c1OC (racemic) (as salt: hydrochloride),160 to 165 °C
3,CS(=O)(=O)c1cccc(NC(=O)N[C@@H]2CCCC[C@H]2N2CCC(Cc3ccc(Cl)cc3)CC2)c1 (racemic) (as salt: hydrochloride),150.2 to 151.6 °C
4,COc1cc(NC(=O)N[C@@H]2COC[C@H]2N2CCC(Cc3ccc(Cl)cc3)CC2)cc(OC)c1OC (racemic) (as salt: hydrochloride),229.2 to 230.9 °C
5,COc1cc(CCNC(=O)N[C@@H]2CCC[C@H]2N2CCC(Cc3ccc(Cl)cc3)CC2)cc(OC)c1OC (racemic) (as salt: hydrochloride),90.3 to 95 °C
6,"COc1cc(NC(=O)N[C@@H]2CNC[C@H]2N2CCC(Cc3ccc(Cl)cc3)CC2)cc(OC)c1OC (racemic) (as salt: hydrochloride) [Example 9, (±)-trans-1-{4-[4-(4-chlorobenzyl)piperidin-1-yl]-pyrrolidin-3-yl}-3-(3,4,5-trimethoxyphenyl)urea dihydrochloride]",157 to 170 °C
7,COc1cc(NC(=O)N[C@@H]2CCCC[C@@H]2N2CCC(Cc3ccc(Cl)cc3)CC2)cc(OC)c1OC (racemic) (as salt: hydrochloride),120.1 to 137.3 °C
8,COc1cc(NC(=O)N[C@@H]2CC[C@H]2N2CCC(Cc3ccc(Cl)cc3)CC2)cc(OC)c1OC (racemic) (as salt: hydrochloride),127.4 to 128.2 °C
9,CS(=O)(=O)c1ccc(C(=O)N[C@@H]2CC[C@H]2N2CCC(Cc3ccc(Cl)cc3)CC2)cc1 (racemic) (as salt: hydrochloride),173.2 to 184.1 °C
10,COc1cc(NC(=O)N[C@@H]2C[C@H](OC)C[C@H]2N2CCC(Cc3ccc(Cl)cc3)CC2)cc(OC)c1OC (racemic) (as salt: hydrochloride),112.5 to 119.5 °C
11,COc1cc(NC(=O)N[C@@H]2CN(S(=O)(=O)N(C)C)C[C@H]2N2CCC(Cc3ccc(Cl)cc3)CC2)cc(OC)c1OC (racemic) (as salt: hydrochloride),141 to 143 °C
12,COc1cc(NC(=O)N[C@@H]2CN(S(N)(=O)=O)C[C@H]2N2CCC(Cc3ccc(Cl)cc3)CC2)cc(OC)c1OC (racemic) (as salt: hydrochloride),155.7 to 160 °C
13,COc1cc(NC(=O)N[C@@H]2CCC[C@H]2N2CCC(Cc3ccc(Cl)cc3)CC2)cc(OC)c1OC (racemic) (as salt: hydrochloride),136.1 to 138 °C
14,COc1cc(NC(=O)N[C@@H]2CCC[C@@H]2N2CCC(Cc3ccc(Cl)cc3)CC2)cc(OC)c1OC (racemic) (as salt: hydrochloride),117.5 to 122.5 °C
15,"COc1cc(NC(=O)N[C@@H]2C[C@H](O)C[C@H]2N2CCC(Cc3ccc(Cl)cc3)CC2)cc(OC)c1OC (racemic) [Example 6, (±)-1-{(1R,2R,4S)-2-[4-(4-chlorobenzyl)piperidin-1-yl]-4-hydroxy-cyclopentyl}-3-(3,4,5-trimethoxyphenyl)urea]",98.7 to 102 °C
16,COc1cc(NC(=O)N[C@@H]2C[C@H](CO)C[C@H]2N2CCC(Cc3ccc(Cl)cc3)CC2)cc(OC)c1OC (racemic) (as salt: hydrochloride),138 to 143 °C
17,COc1cc(NC(=O)N[C@@H]2CN(CCS(C)(=O)=O)C[C@H]2N2CCC(Cc3ccc(Cl)cc3)CC2)cc(OC)c1OC (racemic) (as salt: hydrochloride),210.2 to 211.8 °C
18,"CS(=O)(=O)c1ccc(C(=O)N[C@@H]2CCCC[C@@H]2N2CCC(Cc3ccc(Cl)cc3)CC2)cc1 (racemic) (as salt: hydrochloride) [Example 14, (±)-cis-N-{2-[4-(4-chlorobenzyl)piperidin-1-yl]-cyclohexyl}-4-methanesulfonyl-benzamide hydrochloride]",123.7 to 149.4 °C
19,"CS(=O)(=O)c1ccc(C(=O)N[C@@H]2CCC[C@@H]2N2CCC(Cc3ccc(Cl)cc3)CC2)cc1 (racemic) (as salt: hydrochloride) [Example 11, (±)-cis-N-{2-[4-(4-chlorobenzyl)piperidin-1-yl]-cyclopentyl}-4-methanesulfonyl-benzamide hydrochloride]",125.3 to 131.9 °C
20,COc1cc(NC(=O)N[C@@H]2CC[C@@H]2N2CCC(Cc3ccc(Cl)cc3)CC2)cc(OC)c1OC (racemic) (as salt: hydrochloride),123.7 to 127.9 °C
21,"COc1cc(NC(=O)N[C@@H]2CCC[C@H]2N2CCC(Cc3ccc(Cl)cc3)CC2)cc2ccccc12 (racemic) [Example 22, (±)-trans-1-{2-[4-(4-chlorobenzyl)piperidin-1-yl]-cyclopentyl}-3-(4-methoxy-naphthalen-2-yl)urea]",175 to 190 °C
22,COc1cc(NC(=O)N[C@@H]2CN(C(=O)N(C)C)C[C@H]2N2CCC(Cc3ccc(Cl)cc3)CC2)cc(OC)c1OC (racemic) (as salt: hydrochloride),142 to 144.5 °C
23,COc1cc(NC(=O)N[C@@H]2CN(S(C)(=O)=O)C[C@H]2N2CCC(Cc3ccc(Cl)cc3)CC2)cc(OC)c1OC (racemic) (as salt: hydrochloride),148 to 158 °C
24,COc1cc(NC(=O)N[C@@H]2CN(C(C)=O)C[C@H]2N2CCC(Cc3ccc(Cl)cc3)CC2)cc(OC)c1OC (racemic) (as salt: hydrochloride),155 to 161 °C
25,COC[C@@H]1C[C@@H](N2CCC(Cc3ccc(Cl)cc3)CC2)[C@H](NC(=O)Nc2cc(OC)c(OC)c(OC)c2)C1 (racemic) (as salt: hydrochloride),109 to 112 °C
26,"COc1cc(NC(=O)N[C@@H]2CCCC[C@H]2N2CCC(Cc3ccc(Cl)cc3)CC2)cc(OC)c1OC (racemic) [Example 1, (±)-trans-1-{2-[4-(4-chlorobenzyl)piperidin-1-yl]-cyclohexyl}-3-(3,4,5-trimethoxyphenyl)urea]",196.9 to 200 °C
27,COc1cc(NC(=O)N[C@@H]2CN(C(N)=O)C[C@H]2N2CCC(Cc3ccc(Cl)cc3)CC2)cc(OC)c1OC (racemic) (as salt: hydrochloride),158 to 162 °C

# Target: T1, CCR-3 receptor (Homo sapiens, UniProt P51677)
# T1 construct: expressed in transfected cells; host or cells: L1.2 (murine pre-B lymphoma line) stably transfected with CCR-3
# T1 sequence (P51677 1-355): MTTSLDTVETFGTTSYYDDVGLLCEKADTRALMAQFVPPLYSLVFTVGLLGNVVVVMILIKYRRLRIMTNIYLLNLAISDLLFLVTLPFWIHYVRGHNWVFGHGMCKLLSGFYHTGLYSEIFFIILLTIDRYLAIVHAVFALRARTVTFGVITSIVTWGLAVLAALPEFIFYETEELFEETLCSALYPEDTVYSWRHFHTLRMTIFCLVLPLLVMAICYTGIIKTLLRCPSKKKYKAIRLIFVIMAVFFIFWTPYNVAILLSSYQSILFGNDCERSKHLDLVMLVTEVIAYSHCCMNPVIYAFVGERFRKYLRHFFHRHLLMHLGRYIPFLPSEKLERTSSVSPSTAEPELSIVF
# Assay: CCR-3 receptor binding assay, in vitro: inhibition of 125I eotaxin binding to CCR-3 L1.2 transfectant cells
# Settings: inhibition of binding of 125I-eotaxin to CCR-3 L1.2 transfected cells, 1 hour at room temperature
# Description: The CCR-3 antagonistic activity of the compounds of the invention was determined by their ability to inhibit the binding of ^125I eotaxin to CCR-3 L1.2 transfectant cells (see Ponath, P. D. et al., J. Exp. Med., Vol. 183, 2437-2448, (1996)).
# The assay was performed in Costar 96-well polypropylene round bottom plates. Test compounds were dissolved in DMSO and then diluted with binding buffer (50 mM HEPES, 1 mM CaCl2, 5 mM MgCl2, 0.5% bovine serum albumin (BSA), 0.02% sodium azide, pH 7.24) such that the final DMSO concentration was 2%. 25 μl of the test solution or only buffer with DMSO (control samples) was added to each well, followed by the addition of 25 μl of ^125I-eotaxin ([…]) (NEX314, New England Nuclear, Boston, Mass.) and 1.5×10^5 of the CCR-3 L1.2 transfected cells in 25 μl binding buffer. The final reaction volume was 75 μl.
# After incubating the reaction mixture for 1 hour at room temperature, the reaction was terminated by filtering the reaction mixture through polyethylenimine treated Packard Unifilter GF/C filter plate (Packard, Chicago, Ill.). The filters were washed four times with ice cold wash buffer containing 10 mm HEPES and 0.5M sodium chloride (pH 7.2) and dried at 65° C. for approximately 10 minutes. 25 μl/well of Microscint-20® scintillation fluid (Packard) was added and the radioactivity retained on the filters was determined by using the Packard TopCount®.
row,Compound,IC50
1,CC(=O)c1cccc(C(=O)N[C@@H]2CCC[C@H]2N2CCC(Cc3ccc(Cl)cc3)CC2)c1 [Compound 6],1860 nM
2,O=[N+]([O-])c1ccccc1S(=O)(=O)N[C@@H]1CCC[C@H]1N1CCC(Cc2ccc(Cl)cc2)CC1 [Compound 8],6090 nM
3,O=C(N[C@@H]1CCC[C@H]1N1CCC(Cc2ccc(Cl)cc2)CC1)c1cc2cc(Cl)ccc2[nH]1 [Compound 5],2690 nM
4,"O=C(Nc1ccc2ccccc2n1)N[C@@H]1CCC[C@H]1N1CCC(Cc2ccc(Cl)cc2)CC1 (racemic) [Compound 1, (±)-trans-1-{2-[4-(4-chlorobenzyl)piperidin-1-yl]cyclopentyl}-3-quinolin-2-yl-urea]",557 nM
5,O=C(N[C@@H]1CCC[C@H]1N1CCC(Cc2ccc(Cl)cc2)CC1)OCc1ccc([N+](=O)[O-])cc1 [Compound 9],5120 nM
6,COc1cc(CC(=O)N[C@@H]2CCC[C@H]2N2CCC(Cc3ccc(Cl)cc3)CC2)cc(OC)c1OC [Compound 7],1480 nM
7,COc1ccc(NC(=S)N[C@@H]2CCC[C@H]2N2CCC(Cc3ccc(Cl)cc3)CC2)cc1 [Compound 10],512 nM
8,CC(=O)Nc1cccc(NC(=O)N[C@@H]2CCC[C@H]2N2CCC(Cc3ccc(Cl)cc3)CC2)c1 [Compound 2],18.5 nM
9,O=C(NCCc1cccs1)N[C@@H]1CCC[C@H]1N1CCC(Cc2ccc(Cl)cc2)CC1 [Compound 4],864 nM
10,O=C(Nc1cccc(Cl)c1Cl)N[C@@H]1CCC[C@H]1N1CCC(Cc2ccc(Cl)cc2)CC1 [Compound 3],1140 nM
